Measured values reported in patent US20240131007A1, “METHODS AND COMPOSITIONS FOR PICORNAVIRUS ANTI-VIRAL AGENTS” (University of Connecticut, priority 2022, published 2024).
Where two headings read alike, the source gives them in different places.

What was measured:
EV-A71 Δ2C^116-329 = molecular target: T1, EV-A71 Δ2C^116-329 (Human enterovirus 71, UniProt Q66478); test: biochemical; assay type: biochemical
T1 construct: EV-A71 Δ2C (amino acids 116-329) was designed with; made in house; host or cells: E. coli Rosetta 2(DE3) pLysS, pMALc5x vector

EV-A71 = test: CPE inhibition assay (Cell Titer Glo) against EV-A71 in Vero cells; assay type: cell-based, Enterovirus A71; settings: for IC50: Enterovirus A, EVA71, EV-A71, Vero cells, read-out: IC50; for Selectivity Index: CC50/IC50
in vitro = settings: African green monkey, CC50 (μM)
[1] = Cytotoxicity assay (Cell Titer Glo); settings: African green monkey, CC50 (μM), Vero cells

T1 sequence (Q66478 1227-1440, stated change not applied): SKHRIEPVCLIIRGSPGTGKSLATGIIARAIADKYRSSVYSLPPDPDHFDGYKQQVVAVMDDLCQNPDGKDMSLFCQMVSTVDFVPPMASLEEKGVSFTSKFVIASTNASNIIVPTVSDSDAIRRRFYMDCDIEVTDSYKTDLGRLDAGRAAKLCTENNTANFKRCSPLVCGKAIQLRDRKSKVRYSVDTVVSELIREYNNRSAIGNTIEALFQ

| SMILES | CC50 at 3 days (in vitro) | IC50 (EV-A71; Table 10, Scaffold 1) | Selectivity Index (EV-A71; Table 10, Scaffold 1) | further results |
| --- | --- | --- | --- | --- |
| O=C(Nc1ccc2[nH]c(-c3ccc(Br)o3)nc2c1)c1ccc([N+](=O)[O-])cc1 [Compound 51, N-[2-(5-bromo-2-furyl)-1H-benzimidazol-5-yl]-4-nitrobenzamide] | 126 µM | – | – | IC50 (EV-A71 Δ2C^116-329): 54.1 µM; IC50 (EV-A71; Table 12, Scaffold 3): 72.4 µM; Selectivity Index (EV-A71; Table 12, Scaffold 3): 1.74 |
| Cc1ccc2nc(-c3cccc(NC(=O)c4ccco4)c3)[nH]c2c1 [Compound 63, N-[3-(6-methyl-1H-benzimidazol-2-yl)phenyl]-2-furamide] | – | – | – | CC50 at 3 days ([1]; Table 13, Scaffold 4): 131 µM; IC50 (EV-A71; Table 13, Scaffold 4): 24.8 µM; Selectivity Index (EV-A71; Table 13, Scaffold 4): 5.28 |
| COc1ccc(C(=O)Nc2ccc(-c3nc4cc(C)ccc4[nH]3)cc2)cc1OC [Compound 37, 3,4-dimethoxy-N-[4-(5-methyl-1H-benzimidazol-2-yl)phenyl]benzamide] | > 400 µM | 69.1 µM | >5.79 | IC50 (EV-A71 Δ2C^116-329): 20.6 µM |
| O=C(Nc1ccc(-c2nc3ccccc3o2)cc1)c1ccc(NC(=O)c2cc3ccccc3o2)cc1 [Compound 46, N-[4-({[4-(1,3-benzoxazol-2-yl)phenyl]amino}carbonyl)phenyl]-1-benzofuran-2-carboxamide] | 1380 µM | 40 µM | 34.49 | IC50 (EV-A71 Δ2C^116-329): 17.4 µM |
| O=C(Nc1ccc(-c2nc3ccccc3[nH]2)cc1)c1c(F)c(F)c(F)c(F)c1F [Compound 16, N-[4-(1H-benzimidazol-2-yl)phenyl]-2,3,4,5,6-pentafluorobenzamide] | – | > 25 µM | – | CC50 at 3 days ([1]; Table 10, Scaffold 1): > 400 µM |
| Cc1ccc2[nH]c(-c3ccc(NC(=O)c4cccc(Br)c4)cc3)nc2c1 [Compound 44, 3-bromo-N-[4-(5-methyl-1H-benzimidazol-2-yl)phenyl]benzamide] | 475 µM | 10.5 µM | 45.23 | IC50 (EV-A71 Δ2C^116-329): 19 µM |
| Cc1ccc(-c2nc3cc(NC(=O)c4cccs4)ccc3[nH]2)o1 [Compound 55, N-[2-(5-methyl-2-furyl)-1H-benzimidazol-5-yl]-2-thiophenecarboxamide] | – | – | – | CC50 at 3 days ([1]; Table 12, Scaffold 3): > 400 µM; IC50 (EV-A71; Table 12, Scaffold 3): > 25 µM |
| Cc1cccc(C(=O)Nc2ccc(-c3nc4ccccc4[nH]3)cc2)c1 [Compound 12, N-[4-(1H-benzimidazol-2-yl)phenyl]-3-methylbenzamide] | 432 µM | 13.2 µM | 32.71 | IC50 (EV-A71 Δ2C^116-329): 652 µM |
| Cc1ccc2[nH]c(-c3ccc(NC(=O)C(C)C)cc3)nc2c1 [Compound 33, 2-methyl-N-[4-(5-methyl-1H-benzimidazol-2-yl)phenyl]propanamide] | 468 µM | 11.8 µM | 39.46 | – |
| c1ccc2[nH]c(-c3ccc(-c4nc5ccccc5[nH]4)cc3)nc2c1 [Compound 65, 2,2′-(1,4-phenylene)bis-1H-benzimidazole] | 379 µM | – | – | IC50 (EV-A71; Table 8, virus-induced CPE): 2.17 µM; Selectivity Index (EV-A71; Table 8): 174.52; Selectivity Index (EV-A71; Table 13, Scaffold 4): 174.52 |
| O=C(c1ccccc1)c1ccc2[nH]c(-c3ccc(NC(=O)c4ccco4)cc3)nc2c1 [Compound 45, N-[4-(5-benzoyl-1H-benzimidazol-2-yl)phenyl]-2-furamide] | 59.1 µM | – | 12.56 | IC50 (EV-A71; Table 8, virus-induced CPE): 4.71 µM; Selectivity Index (EV-A71; Table 8): 12.56 |
| Cc1ccc2[nH]c(-c3ccc(NC(=O)C(F)(F)F)cc3)nc2c1 [Compound 34, 2,2,2-trifluoro-N-[4-(5-methyl-1H-benzimidazol-2-yl)phenyl]acetamide] | 618 µM | > 25 µM | – | – |
| CCC(=O)Nc1ccc(-c2nc3ccc(Cl)cc3[nH]2)cc1 [Compound 32, N-[4-(6-chloro-1H-benzimidazol-2-yl)phenyl]propanamide] | > 400 µM | > 25 µM | – | – |
| COc1ccc(CCNC(=O)C(=O)c2c(-c3ccccc3)[nH]c3ccccc23)cc1OC [Compound T6, N-[2-(3,4-dimethoxyphenyl)ethyl]-2-oxo-2-(2-phenyl-1H-indol-3-yl)acetamide] | > 200 µM | – | – | IC50 (EV-A71; Table 6): 44.2 µM; Selectivity Index (EV-A71; Table 6): >4.52 |
| O=C(Nc1ccc(-c2nc3ccccc3[nH]2)cc1)c1cccs1 [Compound 10, N-[4-(1H-benzimidazol-2-yl)phenyl]-2-thiophenecarboxamide] | 210 µM | – | 42.06 | IC50 (EV-A71; Table 8, virus-induced CPE): 5 µM; Selectivity Index (EV-A71; Table 8): 42.06 |
| O=C(Nc1ccc(-c2nc3cc4ccccc4cc3[nH]2)cc1)c1cccc(Br)c1 [Compound 48, 3-bromo-N-[4-(1H-naphtho[2,3-d]imidazol-2-yl)phenyl]benzamide] | 302 µM | – | – | IC50 (EV-A71 Δ2C^116-329): 33.1 µM; IC50 (EV-A71; Table 8, virus-induced CPE): 0.71 µM; Selectivity Index (EV-A71; Table 8): 426.06; Selectivity Index (EV-A71; Table 11, Scaffold 2): 426.06 |
| Cc1ccc2[nH]c(-c3ccc(NC(=O)Cc4ccccc4)cc3)nc2c1 [Compound 39, N-[4-(5-methyl-1H-benzimidazol-2-yl)phenyl]-2-phenylacetamide] | > 400 µM | > 25 µM | – | – |

| SMILES | CC50 at 3 days (in vitro) | IC50 (EV-A71; Table 10, Scaffold 1) | Selectivity Index (EV-A71; Table 10, Scaffold 1) | further results |
| --- | --- | --- | --- | --- |
| O=C(Nc1ccc(-c2nc3ccccc3[nH]2)cc1)c1cccc(F)c1 [Compound 15, N-[4-(1H-benzimidazol-2-yl)phenyl]-3-fluorobenzamide] | 29.2 µM | > 25 µM | – | – |
| O=C(Nc1ccc(-c2nc3ccccc3[nH]2)cc1)c1ccc(C(=O)Nc2ccc(-c3nc4ccccc4[nH]3)cc2)cc1 [Compound 28, N,N′-bis[4-(1H-benzimidazol-2-yl)phenyl]terephthalamide] | > 400 µM | 41.7 µM | >9.6 | IC50 (EV-A71 Δ2C^116-329): 0.55 µM |
| Cc1ccc2[nH]c(-c3cccc(NC(=O)c4ccc(Br)o4)c3)nc2c1 [Compound 64, 5-bromo-N-[3-(5-methyl-1H-benzimidazol-2-yl)phenyl]-2-furamide] | 43.8 µM | – | – | IC50 (EV-A71; Table 13, Scaffold 4): 71.4 µM; Selectivity Index (EV-A71; Table 13, Scaffold 4): 0.61 |
| Cc1ccc(OCC(=O)Nc2ccc(-c3nc4cc(C)ccc4[nH]3)cc2)cc1 [Compound 41, N-[4-(5-methyl-1H-benzimidazol-2-yl)phenyl]-2-(4-methylphenoxy)acetamide] | > 400 µM | > 25 µM | – | – |
| Cc1ccc2[nH]c(-c3ccc(N)cc3)nc2c1 [Compound 59, 4-(5-methyl-1H-benzimidazol-2-yl)aniline] | 189 µM | – | – | IC50 (EV-A71; Table 13, Scaffold 4): > 25 µM |
| Nc1ccc(-c2nc3ccc(Cl)cc3[nH]2)cc1 [Compound 61, 4-(6-chloro-1H-benzimidazol-2-yl)aniline] | 126 µM | – | – | IC50 (EV-A71; Table 13, Scaffold 4): 51.3 µM; Selectivity Index (EV-A71; Table 13, Scaffold 4): 2.46 |
| O=C(Nc1ccc(-c2nc3ccccc3[nH]2)cc1)c1ccc(-c2cccc([N+](=O)[O-])c2)o1 [Compound 23, N-[4-(1H-benzimidazol-2-yl)phenyl]-5-(3-nitrophenyl)-2-furamide] | 1.14 µM | > 25 µM | – | – |
| O=C(Nc1ccc(-c2nc3ccccc3[nH]2)cc1)c1ccccc1 [Compound 6, N-[4-(1H-benzimidazol-2-yl)phenyl]benzamide] | 13.7 µM | 30.8 µM | 0.45 | – |
| Cc1ccc2[nH]c(-c3ccc(NC(=O)c4ccc(Br)o4)cc3)nc2c1 [Compound 40, 5-bromo-N-[4-(5-methyl-1H-benzimidazol-2-yl)phenyl]-2-furamide] | > 400 µM | 81.9 µM | >4.89 | IC50 (EV-A71 Δ2C^116-329): 37.3 µM |
| Cc1ccc2[nH]c(-c3ccc(NC(=O)C4CC4)cc3)nc2c1 [Compound 31, N-[4-(5-methyl-1H-benzimidazol-2-yl)phenyl]cyclopropanecarboxamide] | > 400 µM | 9.6 µM | >41.67 | – |
| Cc1ccc2[nH]c(-c3ccc(NC(=O)c4ccc(C)c(C)c4)cc3)nc2c1 [Compound 43, 3,4-dimethyl-N-[4-(5-methyl-1H-benzimidazol-2-yl)phenyl]benzamide] | 170 µM | – | 39.86 | IC50 (EV-A71 Δ2C^116-329): 55 µM; IC50 (EV-A71; Table 8, virus-induced CPE): 4.27 µM; Selectivity Index (EV-A71; Table 8): 39.86 |
| CC(=O)Nc1ccc(-c2nc3cc4ccccc4cc3[nH]2)cc1 [Compound 47, N-[4-(1H-naphtho[2,3-d]imidazol-2-yl)phenyl]acetamide] | 477 µM | – | – | IC50 (EV-A71; Table 8, virus-induced CPE): 4.22 µM; Selectivity Index (EV-A71; Table 8): 113.08; Selectivity Index (EV-A71; Table 11, Scaffold 2): 113.08 |
| O=C(Cc1cccc2ccccc12)Nc1ccc(-c2nc3ccccc3[nH]2)cc1 [Compound 24, N-[4-(1H-benzimidazol-2-yl)phenyl]-2-(1-naphthyl)acetamide] | 58.8 µM | 8.34 µM | 7.05 | – |
| COc1ccccc1OCC(=O)Nc1ccc(-c2nc3cc(C)ccc3[nH]2)cc1 [Compound T1, 2-(2-methoxyphenoxy)-N-[4-(5-methyl-1H-benzimidazol-2-yl)phenyl]acetamide] | 306 µM | – | – | IC50 (EV-A71; Table 6): 5 µM; Selectivity Index (EV-A71; Table 6): 61.24 |
| O=C(Nc1ccc(-c2nc3ccccc3[nH]2)cc1)c1ccc(-c2cccc(Cl)c2)o1 [Compound 27, N-[4-(1H-benzimidazol-2-yl)phenyl]-5-(3-chlorophenyl)-2-furamide] | 67.6 µM | 5.85 µM | 11.56 | – |
| O=C(Nc1ccc(-c2nc3ccccc3[nH]2)cc1)c1cc([N+](=O)[O-])ccc1N1CCOCC1 [Compound 19, N-[4-(1H-benzimidazol-2-yl)phenyl]-2-(4-morpholinyl)-5-nitrobenzamide] | 2090 µM | 7.28 µM | 287.50 | – |
